{"source": "the supplement of paper PMC11061612", "experiment_in_all_cases": "Bliss excess, mean over the matrix (fraction); higher = more synergy", "key": {"[1]": {"test_system": "22RV1 (Prostate Carcinoma)", "how_it_was_run": "(§1)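 Cell lines grown in DMEM/F12 or RPMI with 10% FBS were plated in 1536-well plates and held 24 hours at 37°C, 5% CO2 before 72 hours of exposure to two-drug dose matrices, with DMSO typically at 0.2%. CellTiter-Glo 2.0 luminescence gave viability, which was converted to inhibition. Vehicle wells were set to 0 and blank wells to 1. Combination Emax is the second-highest inhibition in the matrix, and Bliss excess is the observed combination effect minus the expected EA + EB − EA·EB, where EA and EB are the single-agent effects.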"}, "[2]": {"test_system": "JVM-2 (B-Cell Non-Hodgkin's Lymphoma)", "how_it_was_run": "as §1"}, "[3]": {"test_system": "LS-411N (Colorectal Carcinoma)", "how_it_was_run": "as §1"}, "EW-16 (Ewing's Sarcoma)": {"test_system": "EW-16 (Ewing's Sarcoma)", "how_it_was_run": "as §1"}, "[4]": {"test_system": "LU-165 (Small Cell Lung Carcinoma)", "how_it_was_run": "as §1"}, "KP-N-YN (Neuroblastoma)": {"test_system": "KP-N-YN (Neuroblastoma)", "how_it_was_run": "as §1"}, "[5]": {"test_system": "NCI-H2228 (Lung Adenocarcinoma)", "how_it_was_run": "as §1"}, "[6]": {"test_system": "KYSE-220 (Esophageal Squamous Cell Carcinoma)", "how_it_was_run": "as §1"}, "IM-9 (Non-Cancerous)": {"test_system": "IM-9 (Non-Cancerous)", "how_it_was_run": "as §1"}, "[7]": {"test_system": "EPLC-272H (Other Solid Carcinomas)", "how_it_was_run": "as §1"}, "RH-41 (Rhabdomyosarcoma)": {"test_system": "RH-41 (Rhabdomyosarcoma)", "how_it_was_run": "as §1"}, "[8]": {"test_system": "GCT (Other Solid Carcinomas)", "how_it_was_run": "as §1"}, "A204 (Rhabdomyosarcoma)": {"test_system": "A204 (Rhabdomyosarcoma)", "how_it_was_run": "as §1"}, "5637 (Bladder Carcinoma)": {"test_system": "5637 (Bladder Carcinoma)", "how_it_was_run": "as §1"}, "[9]": {"test_system": "JHH-2 (Hepatocellular Carcinoma)", "how_it_was_run": "as §1"}, "[10]": {"test_system": "JHU-022 (Oral Cavity Carcinoma)", "how_it_was_run": "as §1"}, "NB13 (Neuroblastoma)": {"test_system": "NB13 (Neuroblastoma)", "how_it_was_run": "as §1"}, "[11]": {"test_system": "NCI-H2087 (Lung Adenocarcinoma)", "how_it_was_run": "as §1"}, "[12]": {"test_system": "JIMT-1 (Breast Carcinoma)", "how_it_was_run": "as §1"}, "[13]": {"test_system": "Jurkat (T-Lymphoblastic Leukemia)", "how_it_was_run": "as §1"}}}
{"smiles": "NC1(C(=O)N[C@@H](CCO)c2ccc(Cl)cc2)CCN(c2ncnc3[nH]ccc23)CC1", "note": "[Capivasertib] + C[C@@H]1COCCN1C2=NC(=NC(=C2)C3(CC3)[S@](=N)(=O)C)C4=C5C=CNC5=NC=C4 [AZD6738] (first compound max 10 µM, 7x7, partner max 10 µM)", "values": [{"measurement": "Bliss excess", "setting": "[1]", "result": -0.0527}, {"measurement": "Bliss excess", "setting": "[2]", "result": -0.0607}, {"measurement": "Bliss excess", "setting": "[3]", "result": -0.0605}, {"measurement": "Bliss excess", "setting": "EW-16 (Ewing's Sarcoma)", "result": 0.0116}, {"measurement": "Bliss excess", "setting": "[4]", "result": -0.01}, {"measurement": "Bliss excess", "setting": "KP-N-YN (Neuroblastoma)", "result": -0.0395}, {"measurement": "Bliss excess", "setting": "[5]", "result": -0.0617}, {"measurement": "Bliss excess", "setting": "[6]", "result": -0.0523}, {"measurement": "Bliss excess", "setting": "IM-9 (Non-Cancerous)", "result": -0.0514}, {"measurement": "Bliss excess", "setting": "[7]", "result": -0.0353}, {"measurement": "Bliss excess", "setting": "RH-41 (Rhabdomyosarcoma)", "result": -0.0389}, {"measurement": "Bliss excess", "setting": "[8]", "result": -0.0719}, {"measurement": "Bliss excess", "setting": "A204 (Rhabdomyosarcoma)", "result": -0.0201}, {"measurement": "Bliss excess", "setting": "5637 (Bladder Carcinoma)", "result": -0.0846}, {"measurement": "Bliss excess", "setting": "[9]", "result": -0.0651}, {"measurement": "Bliss excess", "setting": "[10]", "result": -0.041}, {"measurement": "Bliss excess", "setting": "NB13 (Neuroblastoma)", "result": -0.0823}, {"measurement": "Bliss excess", "setting": "[11]", "result": -0.0071}, {"measurement": "Bliss excess", "setting": "[12]", "result": -0.0321}, {"measurement": "Bliss excess", "setting": "[13]", "result": -0.0403}]}
{"smiles": "CC1(C)CCC(CN2CCN(c3ccc(C(=O)NS(=O)(=O)c4ccc(NCC5CCOCC5)c([N+](=O)[O-])c4)c(Oc4cnc5[nH]ccc5c4)c3)CC2)=C(c2ccc(Cl)cc2)C1", "note": "[Venetoclax] + C[C@@H](Nc1cc(F)cc(F)c1)c1cc(C(=O)N(C)C)cc2c(=O)cc(N3CCOCC3)oc12 [AZD8186] (first compound max 1 µM, 7x7, partner max 3 µM)", "values": [{"measurement": "Bliss excess", "setting": "[1]", "result": -0.0172}, {"measurement": "Bliss excess", "setting": "[2]", "result": 0.0354}, {"measurement": "Bliss excess", "setting": "[3]", "result": 0.0099}, {"measurement": "Bliss excess", "setting": "EW-16 (Ewing's Sarcoma)", "result": -0.0278}, {"measurement": "Bliss excess", "setting": "[4]", "result": -0.0042}, {"measurement": "Bliss excess", "setting": "KP-N-YN (Neuroblastoma)", "result": 0.104}, {"measurement": "Bliss excess", "setting": "[5]", "result": 0.0129}, {"measurement": "Bliss excess", "setting": "[6]", "result": -0.0332}, {"measurement": "Bliss excess", "setting": "IM-9 (Non-Cancerous)", "result": -0.0608}, {"measurement": "Bliss excess", "setting": "[7]", "result": 0.0111}, {"measurement": "Bliss excess", "setting": "RH-41 (Rhabdomyosarcoma)", "result": 0.0587}, {"measurement": "Bliss excess", "setting": "[8]", "result": -0.0154}, {"measurement": "Bliss excess", "setting": "A204 (Rhabdomyosarcoma)", "result": -0.0152}, {"measurement": "Bliss excess", "setting": "5637 (Bladder Carcinoma)", "result": -0.0273}, {"measurement": "Bliss excess", "setting": "[9]", "result": 0.0003}, {"measurement": "Bliss excess", "setting": "[10]", "result": -0.0563}, {"measurement": "Bliss excess", "setting": "NB13 (Neuroblastoma)", "result": -0.0171}, {"measurement": "Bliss excess", "setting": "[11]", "result": -0.0442}, {"measurement": "Bliss excess", "setting": "[12]", "result": -0.0411}, {"measurement": "Bliss excess", "setting": "[13]", "result": 0.0084}]}
